Assay results: PMC10413907 (Journal of Evidence-based Integrative Medicine, 2023)
Where “and” joins values, the source holds several entries; their conditions need not be identical. Identical values can stand only once. Like-named read-outs stand apart in the source and are kept apart here.

How the values were obtained:
[1] = molecular target: recombinant human CYP2D6 (Homo sapiens, UniProt P10635); assay: P450-Glo bioluminescent CYP450 inhibition assay
[2] = system: IL-12p19 mRNA; assay: Pro-inflammatory cytokine mRNA expression; type: cell-based, human; conditions: PBMCs from psoriasis patients vs healthy subjects
[3] = system: PBMCs (from healthy subjects); assay: MTT cell proliferation assay, PBMCs; type: cell-based, human
[4] = molecular target: T1, recombinant human CYP1A2 (Homo sapiens, UniProt P05177); assay: P450-Glo bioluminescent CYP450 inhibition assay; type: in vitro ADME
T1 sequence (P05177 1-516): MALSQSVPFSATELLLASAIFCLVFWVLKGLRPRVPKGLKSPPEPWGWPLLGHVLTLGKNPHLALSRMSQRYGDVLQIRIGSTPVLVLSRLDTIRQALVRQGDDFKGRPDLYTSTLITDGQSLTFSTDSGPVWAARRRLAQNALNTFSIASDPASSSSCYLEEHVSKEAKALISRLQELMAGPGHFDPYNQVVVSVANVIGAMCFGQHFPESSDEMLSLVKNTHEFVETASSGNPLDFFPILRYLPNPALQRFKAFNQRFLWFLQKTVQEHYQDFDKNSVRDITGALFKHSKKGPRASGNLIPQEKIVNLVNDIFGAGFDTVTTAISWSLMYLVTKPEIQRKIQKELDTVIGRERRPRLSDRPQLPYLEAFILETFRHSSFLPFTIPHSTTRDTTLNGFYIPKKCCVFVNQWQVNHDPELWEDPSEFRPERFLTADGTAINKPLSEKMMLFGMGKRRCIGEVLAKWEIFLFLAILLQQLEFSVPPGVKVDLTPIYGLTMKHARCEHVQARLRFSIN

[5] = molecular target: recombinant human CYP3A4 (Homo sapiens, UniProt P08684); assay: P450-Glo bioluminescent CYP450 inhibition assay; type: in vitro ADME
[6] = molecular target: recombinant human CYP2C9 (Homo sapiens, UniProt P11712); assay: P450-Glo bioluminescent CYP450 inhibition assay
[7] = system: HaCaT cells; assay: MTT cell proliferation assay, HaCaT; type: cell-based, human; conditions: 48 h, median (range)
[8] = system: PBMCs from psoriasis patients and healthy subjects; assay: Cell apoptosis/necrosis, FITC-Annexin V/PI flow cytometry, PBMCs; type: cell-based, human; conditions: 48 h exposure; for proportions of PBMCs with early apoptosis, psoriasis patients compared with healthy volunteers: both concentrations
[9] = system: IL-23A mRNA; assay: Pro-inflammatory cytokine mRNA expression; type: cell-based, human; conditions: PBMCs from psoriasis patients vs healthy subjects, 48 h
[10] = system: IL-6 mRNA; assay: Pro-inflammatory cytokine mRNA expression; type: cell-based, human; conditions: PBMCs from psoriasis patients vs healthy subjects; 48 h; IC50
[11] = molecular target: recombinant human CYP2C19 (Homo sapiens, UniProt P33261); assay: P450-Glo bioluminescent CYP450 inhibition assay; type: in vitro ADME
[12] = system: TNF-α mRNA; assay: Pro-inflammatory cytokine mRNA expression; type: cell-based, human; conditions: PBMCs from psoriasis patients vs healthy subjects; 48 h; IC25
[13] = system: PBMCs from psoriasis patients and healthy subjects; assay: Cell cycle analysis by flow cytometry; type: cell-based, human; conditions: PBMCs from patients with psoriasis; 24 h; both concentrations
[14] = read-out: CYP2D6 IC50, median (range), unit of the reference inhibitor
[15] = read-out: CYP2D6 inhibitory potency class, class by IC50
[16] = read-out: CYP1A2 IC50, median (range), unit of the reference inhibitor
[17] = read-out: CYP1A2 inhibitory potency class, class by IC50
[18] = read-out: CYP3A4 IC50, median (range), unit of the reference inhibitor
[19] = read-out: CYP3A4 inhibitory potency class, class by IC50
[20] = read-out: CYP2C9 IC50, median (range), unit of the reference inhibitor
[21] = read-out: CYP2C9 inhibitory potency class, class by IC50
[22] = read-out: CYP2C19 IC50, median (range), unit of the reference inhibitor
[23] = read-out: CYP2C19 inhibitory potency class, class by IC50

Chain of recombinant human CYP2D6 (P10635 whole entry): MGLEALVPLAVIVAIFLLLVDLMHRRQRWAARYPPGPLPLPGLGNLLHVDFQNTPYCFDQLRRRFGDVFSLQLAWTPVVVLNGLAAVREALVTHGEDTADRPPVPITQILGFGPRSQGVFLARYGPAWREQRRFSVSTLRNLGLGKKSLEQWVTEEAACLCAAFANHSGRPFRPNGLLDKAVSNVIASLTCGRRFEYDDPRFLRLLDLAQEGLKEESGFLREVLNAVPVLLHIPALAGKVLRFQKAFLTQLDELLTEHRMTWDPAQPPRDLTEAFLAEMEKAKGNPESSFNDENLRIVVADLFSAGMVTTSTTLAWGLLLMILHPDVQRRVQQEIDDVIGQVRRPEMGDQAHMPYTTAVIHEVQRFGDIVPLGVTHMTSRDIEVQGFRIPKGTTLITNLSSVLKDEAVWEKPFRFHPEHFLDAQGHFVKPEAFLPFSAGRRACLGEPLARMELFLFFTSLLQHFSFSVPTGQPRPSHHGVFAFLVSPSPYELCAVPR
Chain of recombinant human CYP2C9 (P11712 whole entry): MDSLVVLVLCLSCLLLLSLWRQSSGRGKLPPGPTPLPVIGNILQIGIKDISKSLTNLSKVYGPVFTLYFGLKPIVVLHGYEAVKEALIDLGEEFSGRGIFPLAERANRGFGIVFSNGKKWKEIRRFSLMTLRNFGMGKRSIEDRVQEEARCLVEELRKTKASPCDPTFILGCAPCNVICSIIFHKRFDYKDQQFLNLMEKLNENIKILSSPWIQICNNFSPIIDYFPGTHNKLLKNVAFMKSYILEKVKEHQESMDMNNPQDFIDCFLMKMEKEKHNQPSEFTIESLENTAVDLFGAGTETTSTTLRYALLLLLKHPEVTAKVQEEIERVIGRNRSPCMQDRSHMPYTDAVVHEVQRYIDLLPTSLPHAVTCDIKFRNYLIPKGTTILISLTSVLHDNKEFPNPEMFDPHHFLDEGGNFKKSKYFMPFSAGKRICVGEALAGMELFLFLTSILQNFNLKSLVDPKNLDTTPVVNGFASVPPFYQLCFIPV
Chain of recombinant human CYP3A4 (P08684 whole entry): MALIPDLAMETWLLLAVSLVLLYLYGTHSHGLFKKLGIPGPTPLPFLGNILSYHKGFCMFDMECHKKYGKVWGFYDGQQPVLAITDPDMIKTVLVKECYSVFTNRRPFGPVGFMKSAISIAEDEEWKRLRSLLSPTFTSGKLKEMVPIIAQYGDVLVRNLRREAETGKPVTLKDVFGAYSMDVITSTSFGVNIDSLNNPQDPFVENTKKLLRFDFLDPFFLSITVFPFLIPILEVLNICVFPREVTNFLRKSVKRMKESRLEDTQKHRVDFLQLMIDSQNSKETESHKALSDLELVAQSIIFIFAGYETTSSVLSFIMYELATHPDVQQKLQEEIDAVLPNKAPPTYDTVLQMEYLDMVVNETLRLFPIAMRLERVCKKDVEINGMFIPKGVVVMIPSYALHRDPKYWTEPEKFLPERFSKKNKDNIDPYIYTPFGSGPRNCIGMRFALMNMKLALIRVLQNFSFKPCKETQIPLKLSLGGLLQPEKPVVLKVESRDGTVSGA
Chain of recombinant human CYP2C19 (P33261 whole entry): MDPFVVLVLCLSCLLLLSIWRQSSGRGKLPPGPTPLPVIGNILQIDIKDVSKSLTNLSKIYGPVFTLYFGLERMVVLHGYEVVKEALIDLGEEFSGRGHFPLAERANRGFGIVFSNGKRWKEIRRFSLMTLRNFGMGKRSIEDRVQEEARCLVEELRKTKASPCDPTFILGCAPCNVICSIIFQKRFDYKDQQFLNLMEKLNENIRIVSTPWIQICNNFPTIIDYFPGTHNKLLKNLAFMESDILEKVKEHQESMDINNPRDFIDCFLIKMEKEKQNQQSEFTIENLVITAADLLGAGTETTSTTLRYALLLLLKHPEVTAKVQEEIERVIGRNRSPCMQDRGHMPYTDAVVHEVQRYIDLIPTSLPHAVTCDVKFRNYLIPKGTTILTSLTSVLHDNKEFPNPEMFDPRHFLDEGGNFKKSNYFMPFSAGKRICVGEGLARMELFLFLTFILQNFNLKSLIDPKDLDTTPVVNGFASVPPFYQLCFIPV

Structure (SMILES)	CYP2D6 inhibitory potency class ([1]; class by IC50)	IC50 [1, 14]	IC50 [1, 15]	PBMCs IC25 ([3]; 48 h, median (range))	IC50 [4, 16]	IC50 [4, 17]	IC50 [5, 18]	IC50 [5, 19]	IC50 [6, 20]	IC50 [6, 21]	HaCaT IC25 ([7]; MTT)	proportions of PBMCs with early apoptosis, psoriasis patients compared with healthy volunteers [8]	IL-6 mRNA expression [10]	IC50 [11, 22]	IC50 [11, 23]	other results
CCOC(=O)C=Cc1ccc(OC)cc1 [EPMC, ethyl-p-methoxycinnamate]	moderately inhibited	17.8 µM	10 to 50 µM	254 (234-258) μM	118 µM	> 50 µM	865 µM	> 50 µM	87.5 µM	> 50 µM	432 (395-458) μM	significantly lower	reduced	80.4 µM	> 50 µM	IL-12p19 mRNA expression ([2]; 24 h, only at IC50): downregulating; PBMCs IC50 ([3]; 48 h, median (range)): 63.09 µg/mL; IC50 ([3]; read-out: PBMCs IC50, 48 h, median (range)): 306 µM and 305 µM; HaCaT IC50 ([7]; MTT): 114.25 µg/mL; IC50 ([7]; read-out: HaCaT IC50, MTT): 554 µM; IL-23A mRNA expression ([9]; IC50): reduced
COc1cc(/C=C/C(=O)O)ccc1O [Ferulic acid, ferulic acid]	moderately inhibited	11.4 µM	10 to 50 µM		5250 µM	> 50 µM	1150 µM	> 50 µM	469 µM	> 50 µM				1450 µM	> 50 µM	
CCC/C=C1\OC(=O)C2=C1CCC=C2 [Ligustilide, ligustilide]				105 (101-106) μM							151 (138-155) μM	significantly lower	downregulating			IC50 ([1]; CYP2D6 IC50, median (range), unit of the reference inhibitor): 218 µM; IC50 ([1]; CYP2D6 inhibitory potency class, class by IC50): > 50 µM; IL-12p19 mRNA expression ([2]; 48 h, IC25): downregulated; IC50 [4]: 10 to 50 µM; CYP1A2 inhibitory potency class ([4]; class by IC50): moderately inhibited; TNF-α mRNA expression [12]: downregulated; IC50 ([5]; CYP3A4 IC50, median (range), unit of the reference inhibitor): 39.8 µM; IC50 ([5]; CYP3A4 inhibitory potency class, class by IC50): 10 to 50 µM; CYP3A4 inhibitory potency class ([5]; class by IC50): moderately inhibited; phase of cell cycle arrest [13]: S phase; IC50 ([6]; CYP2C9 IC50, median (range), unit of the reference inhibitor): 114 µM; IC50 ([6]; CYP2C9 inhibitory potency class, class by IC50): > 50 µM; IC50 ([7]; Homo sapiens, HaCaT, read-out: HaCaT IC50, MTT, 48 h): 188 µM and 35.8 µg/mL; proportions of living PBMCs from psoriasis patients compared with PBMCs from healthy volunteers [8]: significantly higher; IL-23A mRNA expression ([9]; IC25): downregulated; IC50 ([11]; CYP2C19 IC50, median (range), unit of the reference inhibitor): 89.2 µM; IC50 ([11]; CYP2C19 inhibitory potency class, class by IC50): > 50 µM
